The record followed here is ChEMBL document CHEMBL5241057, “Outline of gelatinase inhibitors as anti-cancer agents: A patent mini-review for 2010-present” (Eur J Med Chem, 2021).

Where a SMILES comes first, the peptide text is derived from it. [ ]: non-standard residue; d: D form. The star is where a group is joined. ξ: configuration not given here. Pro(trans-4-F) = O=C(O)[C@@H]1C[C@@H](F)CN1; NMeIle(3ξ) = CCC(C)[C@H](NC)C(=O)O; Dab = NCC[C@H](N)C(=O)O; Hexanoyl = CCCCCC(=O)*; Bz = O=C(c1ccccc1)*; NHOH = ON*

Experiment [1] addresses T1, 72 kDa type IV collagenase (Homo sapiens, UniProt P08253). The experiment can be described thus: Inhibition of MMP2 (unknown origin).
Experiment [2] deals with T2, Matrilysin (Homo sapiens, UniProt P09237).
T2 sequence (P09237 whole entry): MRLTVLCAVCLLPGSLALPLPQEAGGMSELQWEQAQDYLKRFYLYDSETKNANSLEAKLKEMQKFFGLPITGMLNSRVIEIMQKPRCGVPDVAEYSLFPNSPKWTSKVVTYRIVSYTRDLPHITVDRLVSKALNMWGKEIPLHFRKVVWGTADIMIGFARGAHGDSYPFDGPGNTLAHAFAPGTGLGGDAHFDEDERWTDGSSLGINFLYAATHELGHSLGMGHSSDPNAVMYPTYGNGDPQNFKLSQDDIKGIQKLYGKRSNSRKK
The experiment can be described thus: Inhibition of MMP7 (unknown origin).

Experiment [3] concerns the target Matrix metalloproteinase-14 (Homo sapiens, UniProt P50281). The experiment can be described thus: Inhibition of MMP14 (unknown origin).
In experiment [4] the target is T1, 72 kDa type IV collagenase. The experiment in a line: Inhibition of MMP2 (unknown origin) assessed as inhibition constant.
Experiment [5] has as its target T3, Matrix metalloproteinase-9 (Homo sapiens, UniProt P14780). The experiment in a line: Inhibition of MMP9 (unknown origin) assessed as inhibition constant.
Experiment [6] concerns the target T3, Matrix metalloproteinase-9. The experiment in a line: Inhibition of MMP9 (unknown origin).
The target in experiment [7] is Macrophage metalloelastase (Homo sapiens, UniProt P39900). The experiment in a line: Inhibition of MMP12 (unknown origin).
Experiment [8] has as its system B16-BL6. The experiment can be described thus: Antimetastatic activity in mouse implanted with mouse B16-BL6 cells assessed as inhibition of lung metastasis at 2.5 mg/kg relative to control. The experiment is classed as functional. The arrangement: scale not given: the % may be the effect or the level left.
Experiment [9] concerns B16-BL6. The experiment in a line: Antimetastatic activity in mouse implanted with mouse B16-BL6 cells assessed as inhibition of lung metastasis at 5 mg/kg relative to control. The experiment is classed as functional. The arrangement: scale not given: the % may be the effect or the level left.
The test system of experiment [10] is B16-BL6. The experiment in a line: Antimetastatic activity in mouse implanted with mouse B16-BL6 cells assessed as inhibition of lung metastasis at 7.5 mg/kg relative to control. In kind it is functional. Set-up: scale not given: the % may be the effect or the level left.
A further experiment concerns the target Neutrophil collagenase (Homo sapiens, UniProt P22894). The experiment can be described thus: Inhibition of MMP8 (unknown origin).
The target of experiment [11] is T2, Matrilysin. The experiment can be described thus: Inhibition of MMP7 (unknown origin) assessed as inhibition constant.
Experiment [12] deals with T3, Matrix metalloproteinase-9. The experiment can be described thus: Inhibition of MMP9 (unknown origin) assessed as dissociation constant.

T3 sequence (P14780 whole entry): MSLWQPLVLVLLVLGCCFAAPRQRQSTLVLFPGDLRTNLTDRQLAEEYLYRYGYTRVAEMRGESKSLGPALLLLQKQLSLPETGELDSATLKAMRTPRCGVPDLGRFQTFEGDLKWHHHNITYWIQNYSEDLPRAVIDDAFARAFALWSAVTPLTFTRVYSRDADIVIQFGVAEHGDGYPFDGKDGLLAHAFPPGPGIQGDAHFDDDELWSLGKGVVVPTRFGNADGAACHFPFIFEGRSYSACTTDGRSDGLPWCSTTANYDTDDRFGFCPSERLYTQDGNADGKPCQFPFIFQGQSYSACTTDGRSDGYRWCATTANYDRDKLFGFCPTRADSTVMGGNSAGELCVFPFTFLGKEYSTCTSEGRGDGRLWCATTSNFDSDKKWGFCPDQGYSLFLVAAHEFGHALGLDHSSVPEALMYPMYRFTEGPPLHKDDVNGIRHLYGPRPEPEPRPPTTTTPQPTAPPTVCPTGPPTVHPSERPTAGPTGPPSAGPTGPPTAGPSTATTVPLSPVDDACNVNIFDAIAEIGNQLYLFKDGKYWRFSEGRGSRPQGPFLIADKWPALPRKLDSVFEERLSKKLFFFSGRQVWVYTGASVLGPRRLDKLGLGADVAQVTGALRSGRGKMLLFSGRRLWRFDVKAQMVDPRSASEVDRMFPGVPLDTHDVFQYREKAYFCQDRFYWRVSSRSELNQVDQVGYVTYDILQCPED
T1 sequence (P08253 whole entry): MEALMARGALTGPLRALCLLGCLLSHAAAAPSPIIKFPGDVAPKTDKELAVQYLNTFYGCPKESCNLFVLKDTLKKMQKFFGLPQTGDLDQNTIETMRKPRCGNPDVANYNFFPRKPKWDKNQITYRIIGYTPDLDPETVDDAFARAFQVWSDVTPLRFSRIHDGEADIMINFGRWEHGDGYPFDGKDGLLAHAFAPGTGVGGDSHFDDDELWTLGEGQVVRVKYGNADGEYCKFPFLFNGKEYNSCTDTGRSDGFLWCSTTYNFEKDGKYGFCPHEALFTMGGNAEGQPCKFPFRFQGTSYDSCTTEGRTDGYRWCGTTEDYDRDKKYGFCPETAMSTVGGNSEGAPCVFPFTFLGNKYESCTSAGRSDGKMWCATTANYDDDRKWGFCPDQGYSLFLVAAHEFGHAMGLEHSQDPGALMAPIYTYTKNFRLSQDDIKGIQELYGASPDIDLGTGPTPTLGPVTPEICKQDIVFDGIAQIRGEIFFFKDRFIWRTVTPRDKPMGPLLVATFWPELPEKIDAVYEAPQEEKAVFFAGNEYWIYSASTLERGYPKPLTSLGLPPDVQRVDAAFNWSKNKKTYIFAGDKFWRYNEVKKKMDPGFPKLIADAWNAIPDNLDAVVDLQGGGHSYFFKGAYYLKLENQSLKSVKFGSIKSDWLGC
Chain of Macrophage metalloelastase (P39900 whole entry): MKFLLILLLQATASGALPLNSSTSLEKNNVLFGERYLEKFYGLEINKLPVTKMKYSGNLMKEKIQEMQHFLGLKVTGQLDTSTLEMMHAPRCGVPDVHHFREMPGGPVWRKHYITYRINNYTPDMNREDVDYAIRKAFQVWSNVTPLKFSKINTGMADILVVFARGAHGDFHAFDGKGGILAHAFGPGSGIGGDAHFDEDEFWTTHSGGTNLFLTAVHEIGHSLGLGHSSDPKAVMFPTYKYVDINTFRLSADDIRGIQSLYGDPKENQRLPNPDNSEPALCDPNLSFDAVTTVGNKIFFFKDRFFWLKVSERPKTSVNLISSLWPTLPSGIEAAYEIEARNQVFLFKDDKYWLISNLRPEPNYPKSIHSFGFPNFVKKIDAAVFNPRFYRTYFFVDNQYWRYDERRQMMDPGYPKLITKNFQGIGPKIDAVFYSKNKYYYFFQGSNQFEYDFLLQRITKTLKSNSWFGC
Chain of Neutrophil collagenase (P22894 whole entry): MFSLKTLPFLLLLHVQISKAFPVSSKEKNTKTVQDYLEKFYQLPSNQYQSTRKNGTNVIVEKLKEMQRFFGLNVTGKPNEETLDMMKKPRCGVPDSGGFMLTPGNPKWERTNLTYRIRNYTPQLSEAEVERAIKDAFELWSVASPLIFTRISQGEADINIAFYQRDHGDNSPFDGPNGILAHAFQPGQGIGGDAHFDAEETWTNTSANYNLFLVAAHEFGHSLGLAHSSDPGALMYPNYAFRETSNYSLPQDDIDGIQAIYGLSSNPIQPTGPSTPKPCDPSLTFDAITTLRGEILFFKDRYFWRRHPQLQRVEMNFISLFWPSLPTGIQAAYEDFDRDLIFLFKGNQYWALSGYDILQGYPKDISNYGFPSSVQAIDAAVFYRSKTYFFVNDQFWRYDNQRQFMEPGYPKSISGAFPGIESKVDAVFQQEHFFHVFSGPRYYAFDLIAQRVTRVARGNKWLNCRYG

As for `CC(C)=CCc1cc(/C=C/C(=O)O)cc(CC=C(C)C)c1O` [ARTEPILLIN], the IC50 came to 3100 nM in experiment [1], 320000 nM on Matrilysin [2] and 350000 nM in [3].
The compound `CCCCCC(=O)N1C[C@H](F)C[C@H]1C(=O)N(C)[C@H](C(=O)N[C@@H](CCNC(=O)c1ccccc1)C(=O)NO)C(C)CC` (stereo partly drawn) (Hexanoyl-[Pro(trans-4-F)]-[NMeIle(3ξ)]-[Dab](Bz)-{NHOH}) came in with an IC50 in experiment [1] below 1 nM.
As for `NCCCCCC(=O)N1C[C@H](NS(=O)(=O)c2ccc(Oc3ccccc3)cc2)[C@@H](S)C1`, the IC50 came out at 2.2 nM in experiment [4] and 2.3 nM in [5].
In experiment [1], `Cc1nc2ccccc2n(CC(=O)NN/C=C\c2cccc([N+](=O)[O-])c2)c1=O` displayed an IC50 of 2010 nM.
Still for that read-out and setting: then `Cc1ccc(NCC(=O)[C@@H](Cc2ccccc2)NC(=O)Cn2c(=O)c(C)nc3ccccc32)cc1`, with 10500 nM.
For the compound `O=C(NO)C1(S(=O)(=O)c2ccc(-n3cc(-c4ccc(-c5ccncc5)cc4)nn3)cc2)CCOCC1`, 0.23 nM corresponded to half-maximal inhibition in experiment [1] (IC50).
Still for that read-out and setting: then `NS(=O)(=O)c1cc(C(=O)c2ccc3c(-c4ccccc4)c[nH]c3c2)ccc1Cl`, with 53 nM.
With `CN([C@H]1CN(C(N)=O)C[C@@H]1S)S(=O)(=O)c1ccc(Oc2ccccc2)cc1`, the values for the IC50 in experiment [4] and in experiment [5] were 2.3 nM and 1.3 nM, respectively.
Take `NCc1ccc(Oc2ccc(S(=O)(=O)CC3CS3)cc2)cc1` (centres undefined): in experiment [1], the IC50 stood at 85 nM.
On to `CCc1ccc(-c2cc(-c3ccc(S(=O)(=O)N[C@H](C(=O)O)C(C)C)cc3)no2)s1`, for which the figures for the IC50 in experiment [6], in experiment [7] and in experiment [1] were 0.29 nM, 0.566 nM and 0.065 nM, respectively.
For `C[C@@H]1O[C@@H](O[C@H]2[C@H](O[C@H]3CC[C@@]4(C)C(CC[C@]5(C)C4CC=C4C6CC(C)(C)CC[C@]6(C(=O)O)CC[C@]45C)[C@]3(C)COC(=O)[C@]3(O)C[C@@H](O)[C@@H](O)[C@H](OC(=O)/C=C/c4ccc(O)c(O)c4)C3)OC[C@H](O)[C@@H]2O)[C@H](O)[C@H](O)[C@H]1O` (some centres undefined), the Activity is given as 43.5% in the experiment on B16-BL6 [8], 52.9% with B16-BL6 [9] and 75.2% in the experiment on B16-BL6 [10]. For the same compound, the figures for the IC50 in experiment [6] and in [1] were 7050 nM and 6230 nM, respectively.
For `CS(=O)(=O)Nc1ccc(Oc2ccc(S(=O)(=O)CC3CS3)cc2)cc1` (centres undefined), in experiment [5], the IC50 was 80 nM.
As for `COC(=O)Cc1ccc(Oc2ccc(S(=O)(=O)CC3CS3)cc2)cc1` (centres undefined), the Ki in [5] was determined as 180 nM.
Take `Cc1ccc(-c2cc(-c3ccc(S(=O)(=O)N[C@H](C(=O)O)C(C)C)cc3)no2)s1`: the IC50 in experiment [6] was 0.34 nM; in experiment [7], 0.368 nM; in [1] it was 0.0449 nM; at Neutrophil collagenase it was 0.567 nM.
With `CN(C)c1ccc(-c2cn(-c3ccc(S(=O)(=O)NC(Cc4ccccc4)C(=O)NO)cc3)nn2)cc1` (centres undefined), the IC50 in experiment [6] turned out to be 1 nM; in [1], 0.22 nM. Also, the Ki at Matrilysin [11] is 116000 nM.
Compound `CC(C)c1noc([C@@H](NC(=O)[C@H](CC2CCCC2)[C@H](O)C(=O)NO)C(C)(C)C)n1` showed an IC50 in experiment [6] below 100 nM.
For the compound `CC(=O)NCc1ccc(Oc2ccc(S(=O)(=O)CC3CS3)cc2)cc1` (centres undefined), it took 234 nM to reach half-maximal inhibition in [1] (IC50).
Same read-out and setting: then `NCc1nc(-c2ccc(Oc3ccc(S(=O)(=O)CC4CS4)cc3)cc2)no1` (centres undefined), with 630 nM.
For `O=C(CCCSc1nc(=O)c2ccccc2[nH]1)Nc1nc2ccccc2[nH]1`, in [12], the IC50 stood at 300 nM.
